The structures appear in SMILES notation.

A short description of series [1]: Single intravenous dose organ function study. In kind it is in vivo. The conditions noted are these: CD1 mice, single iv 15, 75 or 125 mg/kg, day 8 and 14. From the text:
Supplementary Figure 7. KBU2046 treatment is not associated with systemic off-target effects. For histologic examination of tissue, cohorts of N=5 male 6-8 week old Balb/c athymic […]
KBU2046 as described in manuscript Figure 2a. After 35 days of treatment, the following organs were harvested at necropsy, and stained with H&E (alternative staining methods as indicated): heart, lungs, esophagus, stomach, colon, small intestine, liver (Trichrome staining), kidneys (Trichrome staining), adrenals, bladder, prostate, spleen, pancreas, brain, testes, and bone marrow and peripheral blood (Giemsa staining). Organs were examined for damage using a semi-quantitative histological scoring system, as described 4. […]
except in the livers of both control and treatment mice. Changes in the liver observed in control mice were not increased by KBU2046 treatment. […]
gm/mouse, this translated to 5-7 week old females and 4.5-5.5 week old males. […] On day 8 and 14, all critical organs were weighed, and the following parameters measured in blood: cholesterol, triglycerides, alanine aminotransferase (ALT), aspartate aminotransferase (AST), total bilirubin, glucose, phosphorus, total protein, calcium, blood urea nitrogen (BUN), creatinine, albumin, Na, K, Cl, white blood cells (with differential), red blood cells, hemoglobin, […]

For the next series, the system named is MMPs: 1,2,3, and 7-16. The series is described as follows: Qiagen extracellular matrix/adhesion and metastasis/invasion expression arrays. Type of series: cell-based, human. The conditions noted are these: PC3-M cells, three days. The text has this: Response to Reviewers' comments:
We wish to thank the reviewers for their consideration of our manuscript. Their review and critiques have served to improve this manuscript. Below is a point-by-point response to reviewer critiques.
Changes in the manuscript and associated documents are underlined.
General comments: Much of the data is compelling and would be of interest to readers of Nature Communications, but some experimental procedures require a more thorough description and some of the data are too cursory to support the authors’ mechanistic conclusions...
Response. Thank you for your comprehensive and in formed review, we are encouraged that you felt that our data would be compelling to the readers of Nature Communications. In our revised manuscript as well as below, you will find that we have provided the requested clarifications, expanded descriptions and additional experiments requested.
1. Does the compound (herein abbreviated as ‘46’) have any impact on MMPs or other matrix-destroying activities? […] We did in fact suspect that this may be contributing to KBU2046’s anti-invasion efficacy, and as such we evaluated an entire panel of MMPs as part of two separate expression arrays. […]
2. […] Description of this experiment in both the figure legend and in Supplemental Methods is too cursory for the reader to understand how the treatment plan was selected. […]

For series [2], the target named is T1, CDC37/HSP90β heterocomplex (Homo sapiens, UniProt P08238+Q16543).
T1 construct: made in house; host or cells: E. coli (Rosetta BL-21 for HSP90β, BL-21 DE-3 for CDC37)
T1 sequence (P08238 whole entry): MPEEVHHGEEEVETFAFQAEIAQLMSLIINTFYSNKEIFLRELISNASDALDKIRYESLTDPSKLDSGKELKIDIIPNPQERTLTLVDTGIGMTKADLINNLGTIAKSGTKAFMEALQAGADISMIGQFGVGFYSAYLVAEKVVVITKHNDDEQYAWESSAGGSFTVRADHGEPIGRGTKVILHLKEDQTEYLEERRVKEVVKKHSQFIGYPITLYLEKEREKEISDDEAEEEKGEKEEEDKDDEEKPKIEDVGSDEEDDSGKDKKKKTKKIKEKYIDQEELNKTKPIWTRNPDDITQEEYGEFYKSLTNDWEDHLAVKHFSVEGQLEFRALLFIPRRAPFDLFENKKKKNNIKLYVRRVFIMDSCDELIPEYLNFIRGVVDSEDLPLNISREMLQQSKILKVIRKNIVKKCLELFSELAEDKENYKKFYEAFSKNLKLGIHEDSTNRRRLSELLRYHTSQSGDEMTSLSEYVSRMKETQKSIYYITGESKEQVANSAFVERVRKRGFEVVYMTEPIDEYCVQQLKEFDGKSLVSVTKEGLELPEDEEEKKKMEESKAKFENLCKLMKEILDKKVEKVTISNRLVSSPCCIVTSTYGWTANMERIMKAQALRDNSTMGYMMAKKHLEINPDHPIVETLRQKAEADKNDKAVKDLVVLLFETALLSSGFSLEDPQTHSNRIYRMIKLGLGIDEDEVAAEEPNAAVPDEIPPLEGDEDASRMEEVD
T1 sequence (Q16543 whole entry): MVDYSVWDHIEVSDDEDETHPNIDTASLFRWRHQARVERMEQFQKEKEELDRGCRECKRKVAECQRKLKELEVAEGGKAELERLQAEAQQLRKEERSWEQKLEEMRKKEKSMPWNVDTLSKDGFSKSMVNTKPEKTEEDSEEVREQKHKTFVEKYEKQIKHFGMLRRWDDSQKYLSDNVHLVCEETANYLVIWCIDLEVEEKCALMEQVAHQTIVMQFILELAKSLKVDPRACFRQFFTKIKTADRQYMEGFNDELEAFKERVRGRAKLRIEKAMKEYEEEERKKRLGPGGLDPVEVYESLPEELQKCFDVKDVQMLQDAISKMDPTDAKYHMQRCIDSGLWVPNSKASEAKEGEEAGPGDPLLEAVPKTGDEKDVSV
The series is described as follows: DARTS assay with CDC37 and HSP90β combined. In kind it is binding. How it is done:
Fig. 5 KBU2046 stabilizes CDC37/HSP90β heterocomplexes. a KBU2046 stabilizes HSP90β/CDC37 heterocomplexes in a DARTS assay. Equimolar amounts of HSP90β and CDC37 protein were pre-incubated with KBU2046, and resultant thermolysin reaction products were detected by silver stain following SDS-PAGE. […] Atoms within 5 angstroms of KBU2046 are colored by element (carbon, green; nitrogen, blue; oxygen, red). d Potential surface of the whole CDC37/HSP90β dimer (color code: green—HSP90β; gray—CDC37; cyan—Arg167 from CDC37 bisecting the larger pocket and creating a new cleft into which KBU2046 binds)
Fluorescent thermal shift, isothermal titration calorimetry, and biolayer interferometry assays[46] were all performed as described by us using MEK4EE (37-399, S257E, T261E) cloned into pMCSG7 and KRX Competent E. coli cells (Promega Inc.) and above denoted full-length HSP90B and CDC37 vectors and Rosetta BL-21 and BL-21 DE-3 competent E. coli cells, respectively. DARTS assays were conducted as described, using equimolar amounts of CDC37 and HSP90β, thermolysin digestion, and silver stain visualization (ProteoSilver Silver Stain Kit, Sigma-Aldrich).

In the case of `O=C1c2ccccc2OCC1c1ccc(F)cc1` (racemic) [KBU2046, (±)-3(4-fluorophenyl)chroman-4-one], in series [1], the “organ weights, clinical chemistry and blood parameters” value is given as “No abnormal alterations”. Also, the “expression of MMPs and other array members” value with MMPs: 1,2,3, and 7-16 was “no significant differences”. In addition, in series [2] (CDC37 band increased, HSP90β degradation product decreased), the “concentration at which effects were evident” value amounted to 10 nM. The “protection from thermolysin digestion” value in series [2] (equimolar HSP90β and CDC37) is listed as “protected both proteins from digestion”.

The values are drawn from publication PMC6014988, “Precision therapeutic targeting of human cancer cell motility” (Nature Communications, 2018).
